Test results published in patent US20080038290A1, “Cosmetic slimming composition containing an extract of biomass of the alga neochloris oleoabundans” (LVMH RECHERCHE, priority 2006, published 2008).
“Also recorded” adds a separate entry of the source.

Test system: explants of adipose tissues
Assay: Assay of lipolytic activity: free fatty acids released into the culture medium from adipose tissue explants kept alive
Type: cell-based
Conditions: caffeine at a concentration of 0.01% (100 μg/ml)
Experimental: The different extracts are incorporated into the culture medium under the conditions described below.
After a contact time of 8 days, the activity is evaluated by assaying the fatty acids released into the culture medium.
Preparation of 9 explants of adipose tissues and keeping them alive in BEM (BIO-EC's Explants Medium)
Division of the explants into 3 batches of 3 explants: • a reference batch, in the presence of the culture medium • a batch treated with caffeine as a positive reference • a batch treated with an extract according to the invention
At D0 the explants are kept alive in 2 ml of culture medium in which the test extract is incorporated.
This treatment is repeated at D2, D4 and D6.
At D2, D4, D6 and D8 the culture medium is sampled. For each explant the media sampled at D2, D4, D6 and D8 are combined in the same tube and stored at −20° C. for assaying the fatty acids present in the medium.
After extraction of the culture medium, the free fatty acids present therein are separated off and assayed by high performance thin layer chromatography.
The lipolytic activity is evaluated by determining the proportions of free fatty acids released into the culture medium.

Cn1c(=O)c2c(ncn2C)n(C)c1=O [Caffeine, caffeine]
lipolytic effect: no longer having a lipolytic effect; also recorded: no longer active
